Eight molecules from ChEMBL document CHEMBL1201862, “PubChem BioAssay data set” (2004) can be followed below.

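Briefly, cells in 96-well plates were exposed to five compound concentrations for 48 h, and endpoints were estimated by linear interpolation. The concentration for 50% growth inhibition is given as GI50.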 Activity calls are given as the source filed them. Cut-off read from the data, not from the text of the source: active = GI50 up to about 1.1 µM and inactive = higher. A value given as a limit tells only on which side of the number the result lay.

Among the test systems are HCC 2998; MDA-MB-231; UACC-257; OVCAR-5; SK-MEL-5; DU-145; CAKI-1; RXF 393; CCRF-CEM; NCI/ADR-RES; BT-549; OVCAR-4; T47D; HCT-15; HCT-116; OVCAR-3; IGROV-1; HOP-62; Malme-3M; NCI-H522.
Assay in all cases: NCI-60 cell line screen, 48 h

As to `CCCCN(CCCC)c1ccc(/N=N/c2ccc(S(=O)(=O)O)cc2)cc1`, the GI50 is 24 µM (inactive) with HCC 2998; 25.4 µM (inactive) with MDA-MB-231; 94.4 µM (inactive) in the test on UACC-257; 60.8 µM (inactive) in the test on OVCAR-5; 16.2 µM (inactive) with SK-MEL-5; 39.2 µM (inactive) in the test on DU-145. The GI50 is 20.2 µM (inactive) in the test on CAKI-1; 14.4 µM (inactive) with RXF 393; 18.4 µM (inactive) in the test with CCRF-CEM; 24.4 µM (inactive) with NCI/ADR-RES; 35.2 µM (inactive) with BT-549; 17.8 µM (inactive) in the test on OVCAR-4. The GI50 was 25.5 µM (inactive) with T47D; 17.2 µM with HCT-15; 15.6 µM (inactive) in the test with HCT-116; 30.1 µM (inactive) with OVCAR-3; 14.7 µM (inactive) with IGROV-1.
Take `N=C(N)NCCCC(NC(=O)OCCCCCCn1ccc(N)nc1=O)C(=O)O` (stereo not drawn): the GI50 with HCC 2998, with MDA-MB-231, in the test on UACC-257, in the test on OVCAR-5, with DU-145 and in the test with CAKI-1 was > 100 µM (inactive) in each case. Besides, the GI50 in the test on RXF 393 is > 100 µM (inactive); in the test on CCRF-CEM, > 100 µM (inactive); in the test with NCI/ADR-RES, 4.75 µM (inactive); in the test with HOP-62, > 100 µM (inactive); with BT-549, > 100 µM (inactive); in the test on OVCAR-4 it was > 100 µM (inactive). Also, the GI50 was > 100 µM (inactive) in the test with T47D; greater than 100 µM with HCT-15; > 100 µM (inactive) in the test on HCT-116; > 100 µM (inactive) with OVCAR-3; > 100 µM (inactive) with IGROV-1.
Turning to `Cc1nc(-c2ccc([N+](=O)[O-])cc2)cn2c1nc1ccccc12`, the GI50 in the test on MDA-MB-231 was > 100 µM (inactive); in the test with UACC-257, > 100 µM (inactive); in the test with OVCAR-5 it was > 100 µM (inactive); in the test with DU-145 it was > 100 µM (inactive); in the test on CAKI-1, > 100 µM (inactive); in the test with RXF 393 it was 41.6 µM (inactive). For the same molecule, the GI50 in the test with CCRF-CEM was > 100 µM (inactive); in the test with NCI/ADR-RES, > 100 µM (inactive); in the test on HOP-62 it was 36.5 µM (inactive); with BT-549, > 100 µM (inactive); in the test with OVCAR-4 it was > 100 µM (inactive); in the test with T47D, 8.81 µM (inactive). Also, the GI50 is > 100 µM (inactive) in the test with Malme-3M; greater than 100 µM with HCT-15; > 100 µM (inactive) in the test with HCT-116; > 100 µM (inactive) with OVCAR-3; > 100 µM (inactive) in the test on IGROV-1.
With `O=c1[nH][nH]c(=O)c2c1ccc1oc3ccccc3c12`, the GI50 in the test with HCC 2998 is 99.3 µM (inactive); in the test on MDA-MB-231, > 100 µM (inactive); with UACC-257, > 100 µM (inactive); in the test on OVCAR-5 it was > 100 µM (inactive); with SK-MEL-5, > 100 µM (inactive); in the test with DU-145 it was > 100 µM (inactive). Further, the GI50 with CAKI-1 is 45.8 µM (inactive); with RXF 393, > 100 µM (inactive); with CCRF-CEM, > 100 µM (inactive); in the test on HOP-62, > 100 µM (inactive); with BT-549 it was > 100 µM (inactive); in the test on NCI-H522, > 100 µM (inactive). Also, the GI50 with OVCAR-4, with T47D, with Malme-3M, in the test on HCT-116, with OVCAR-3 and with IGROV-1 was > 100 µM (inactive) in each case.
For `CC1=CC(C2/C(=N/O)C=C(C)CC2(C)C)C(O)C(C)(C)C1` (stereo not drawn), the GI50 is 14.1 µM (inactive) in the test on HCC 2998; 17.3 µM (inactive) with MDA-MB-231; 15.5 µM (inactive) in the test with UACC-257; 19.1 µM (inactive) with OVCAR-5; 15.1 µM (inactive) with SK-MEL-5; 15 µM (inactive) with DU-145. Moreover, the GI50 in the test on CAKI-1 is 15 µM (inactive); in the test on RXF 393, 15.3 µM (inactive); in the test on CCRF-CEM it was 22.8 µM (inactive); in the test on NCI/ADR-RES, 16.3 µM (inactive); with HOP-62 it was 14.9 µM (inactive); with BT-549, 17.6 µM (inactive). Besides, the GI50 in the test on OVCAR-4 was 15 µM (inactive); in the test on T47D, 12.8 µM (inactive); with HCT-15 it was 16.3 µM; with HCT-116, 15.7 µM (inactive); in the test on OVCAR-3, 11.1 µM (inactive); in the test with IGROV-1, 17.3 µM (inactive).
Consider `Oc1cc(-c2ccccc2)nc2cc3c(cc12)OCO3`, for which the GI50 in the test on HCC 2998 is 15.6 µM (inactive); in the test on MDA-MB-231, 85.5 µM (inactive); with UACC-257, 44.5 µM (inactive); in the test with OVCAR-5 it was > 84.3 µM (inactive); in the test with SK-MEL-5 it was 3.52 µM (inactive); with DU-145, 79.4 µM (inactive). The GI50 was 5.69 µM (inactive) with RXF 393; 12.2 µM (inactive) with CCRF-CEM; 9.55 µM (inactive) in the test with HOP-62; 40.8 µM (inactive) with BT-549; 3.93 µM (inactive) with NCI-H522; > 97.3 µM (inactive) in the test on OVCAR-4. Moreover, the GI50 was 42.1 µM (inactive) in the test on T47D; 3.76 µM (inactive) with Malme-3M; 18.8 µM in the test with HCT-15; 8 µM (inactive) in the test with HCT-116; 10 µM (inactive) in the test with OVCAR-3; 13.6 µM (inactive) with IGROV-1.
Turning to `COc1ccc(NC(=S)Nc2cc(C)ccn2)cc1`, the GI50 in the test with HCC 2998, in the test with MDA-MB-231, in the test on UACC-257, with SK-MEL-5, with DU-145 and with CAKI-1 was > 100 µM (inactive) each time. For the same molecule, the GI50 with RXF 393 is > 100 µM (inactive); in the test with CCRF-CEM it was > 100 µM (inactive); in the test with NCI/ADR-RES it was 28.6 µM (inactive); with HOP-62, > 100 µM (inactive); in the test with BT-549, > 100 µM (inactive); in the test on OVCAR-4, > 100 µM (inactive). Moreover, the GI50 is > 100 µM (inactive) in the test on T47D, greater than 100 µM in the test on HCT-15, > 100 µM (inactive) in the test on HCT-116 and > 100 µM (inactive) in the test with IGROV-1.
As to `O=C(N/N=C/c1ccc(Cl)cc1)c1cc(I)cc(I)c1O`, the GI50 in the test with MDA-MB-231, with UACC-257, with OVCAR-5, with SK-MEL-5, in the test with DU-145 and in the test on CAKI-1 was > 100 µM (inactive) throughout. In addition, the GI50 in the test on RXF 393, with CCRF-CEM, in the test with NCI/ADR-RES, in the test on HOP-62, in the test on BT-549 and in the test on OVCAR-4 was > 100 µM (inactive) in each case. Moreover, the GI50 in the test on T47D is > 100 µM (inactive); with HCT-15 it was greater than 100 µM; in the test with HCT-116 it was > 100 µM (inactive); in the test on OVCAR-3, > 100 µM (inactive); with IGROV-1 it was > 100 µM (inactive).
